Measured values published in PubChem BioAssay (NCI).
Where “and” joins values, the source holds several entries; their conditions need not be identical. Equal values may be shown once.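 Grown in 96-well plates, cells were treated for 48 hours with each compound at five concentrations. Insufficient inhibition: endpoint recorded as highest concentration tested. Abbreviation: GI50, concentration required for 50% inhibition of growth. TGI marks complete inhibition of growth.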

Columns and labels:
Assay in all cases: DTP human tumour cell line panel, 48 h
U251 CNS = tested on: U251 CNS
HT29 colon = tested on: HT29 colon
MDA-MB-231 breast = tested on: MDA-MB-231 breast
HCC-2998 colon = tested on: HCC-2998 colon
SK-MEL-5 melanoma = tested on: SK-MEL-5 melanoma
SF-268 CNS = tested on: SF-268 CNS
RPMI-8226 leukemia = tested on: RPMI-8226 leukemia
HS 578T breast = tested on: HS 578T breast
HOP-62 NSCLC = tested on: HOP-62 NSCLC
CAKI-1 renal = tested on: CAKI-1 renal

Compound: O=C1CC(c2ccsc2)c2snc(-c3ccc(Cl)cc3)c2N1 (configuration not stated)
- GI50 (U251 CNS): 1.75 µM
- TGI (U251 CNS): > 100 µM
- GI50 (HT29 colon): 0.4 µM
- TGI (HT29 colon): > 100 µM
- GI50 (MDA-MB-231 breast): 1.33 µM
- TGI (MDA-MB-231 breast): > 100 µM
- GI50 (HCC-2998 colon): 1.99 µM
- TGI (HCC-2998 colon): > 100 µM
- GI50 (SK-MEL-5 melanoma): 0.404 µM
- TGI (SK-MEL-5 melanoma): 2.4 µM
- GI50 (SF-268 CNS): 4.87 µM
- TGI (SF-268 CNS): > 100 µM
- GI50 (RPMI-8226 leukemia): 0.6 µM
- TGI (RPMI-8226 leukemia): 5.44 µM
- GI50 (HS 578T breast): 2.59 µM
- TGI (HS 578T breast): > 100 µM
- GI50 (HOP-62 NSCLC): 2.63 µM
- TGI (HOP-62 NSCLC): 35.2 µM
- GI50 (CAKI-1 renal): 1.03 µM
- TGI (CAKI-1 renal): > 100 µM

Compound: O=C1/C(=C/c2ccc(Cl)cc2)CN(C(=O)CCN2CCC(=NO)CC2)C/C1=C\c1ccc(Cl)cc1
- GI50 (U251 CNS): 0.53 µM
- TGI (U251 CNS): 1.28 µM
- GI50 (HT29 colon): 0.338 µM
- TGI (HT29 colon): 1.31 µM
- GI50 (MDA-MB-231 breast): 0.637 µM
- TGI (MDA-MB-231 breast): 1.89 µM
- GI50 (HCC-2998 colon): 0.699 µM
- TGI (HCC-2998 colon): 1.88 µM
- GI50 (SK-MEL-5 melanoma): 1.66 µM
- TGI (SK-MEL-5 melanoma): 3.1 µM
- GI50 (SF-268 CNS): 0.942 µM
- TGI (SF-268 CNS): 2.98 µM
- GI50 (RPMI-8226 leukemia): 0.157 µM
- TGI (RPMI-8226 leukemia): 0.552 µM
- GI50 (HS 578T breast): 1.27 µM
- TGI (HS 578T breast): 6.43 µM
- GI50 (HOP-62 NSCLC): 0.894 µM
- TGI (HOP-62 NSCLC): 2.41 µM
- GI50 (CAKI-1 renal): 0.649 µM
- TGI (CAKI-1 renal): 1.85 µM

Compound: O=C(Cc1csc2nc(-c3ccc(Br)cc3)cn12)N/N=C/c1ccc(Cl)cc1Cl
- GI50 (U251 CNS): 20.6 µM
- TGI (U251 CNS): 44.3 µM
- GI50 (HT29 colon): 40.8 µM
- TGI (HT29 colon): > 100 µM
- GI50 (MDA-MB-231 breast): 26.2 µM
- TGI (MDA-MB-231 breast): > 100 µM
- GI50 (HCC-2998 colon): 20 µM
- TGI (HCC-2998 colon): 44.8 µM
- GI50 (SK-MEL-5 melanoma): 44.2 µM
- TGI (SK-MEL-5 melanoma): > 100 µM
- GI50 (SF-268 CNS): > 100 µM
- TGI (SF-268 CNS): > 100 µM
- GI50 (RPMI-8226 leukemia): 80.2 µM
- TGI (RPMI-8226 leukemia): > 100 µM
- GI50 (HS 578T breast): 31.8 µM
- TGI (HS 578T breast): 89.1 µM
- GI50 (HOP-62 NSCLC): 16.6 µM
- TGI (HOP-62 NSCLC): 35 µM
- GI50 (CAKI-1 renal): 36.1 µM
- TGI (CAKI-1 renal): > 100 µM

Compound: O=C1C(Br)=C(Br)C(=O)c2ccccc21
- GI50 (U251 CNS): 17.5 µM and 2.16 µM
- TGI (U251 CNS): 31.3 µM and 4.68 µM
- TGI (HT29 colon): > 100 µM and 21.8 µM
- TGI (MDA-MB-231 breast): 11.6 µM
- TGI (HCC-2998 colon): 46.3 µM and 34.5 µM
- TGI (SK-MEL-5 melanoma): 23.3 µM
- GI50 (SF-268 CNS): 23.3 µM and 3.27 µM
- TGI (SF-268 CNS): 57.7 µM and 12.9 µM
- TGI (RPMI-8226 leukemia): 10.4 µM
- TGI (HS 578T breast): > 60.7 µM
- TGI (HOP-62 NSCLC): 37.6 µM and 44.4 µM
- TGI (CAKI-1 renal): 13.7 µM

Compound: O=C(Nc1ccc(Oc2ccc(NC(=O)Nc3ccc([N+](=O)[O-])cc3)cc2)cc1)Nc1ccc([N+](=O)[O-])cc1
- GI50 (U251 CNS): 2.16 µM
- TGI (U251 CNS): 12.5 µM
- GI50 (HT29 colon): 2 µM
- TGI (HT29 colon): 15.9 µM
- GI50 (MDA-MB-231 breast): 1.65 µM
- TGI (MDA-MB-231 breast): 7.2 µM
- GI50 (HCC-2998 colon): 2.28 µM
- TGI (HCC-2998 colon): 8.02 µM
- GI50 (SK-MEL-5 melanoma): 1.66 µM
- TGI (SK-MEL-5 melanoma): 3.32 µM
- GI50 (SF-268 CNS): 3.1 µM
- TGI (SF-268 CNS): > 100 µM
- GI50 (RPMI-8226 leukemia): 0.303 µM
- TGI (RPMI-8226 leukemia): 1.84 µM
- GI50 (HS 578T breast): 2.34 µM
- TGI (HS 578T breast): 7.98 µM
- GI50 (HOP-62 NSCLC): 2.64 µM
- TGI (HOP-62 NSCLC): 7.96 µM
- GI50 (CAKI-1 renal): 2.34 µM
- TGI (CAKI-1 renal): 7.55 µM

Compound: O=C(Cn1c(C(=O)c2ccc(Cl)cc2)nc(-c2ccccc2)c1-c1ccccc1)c1ccc(Cl)cc1
- GI50 (U251 CNS): > 100 µM
- TGI (U251 CNS): > 100 µM
- GI50 (HT29 colon): > 100 µM
- TGI (HT29 colon): > 100 µM
- GI50 (MDA-MB-231 breast): > 100 µM
- TGI (MDA-MB-231 breast): > 100 µM
- GI50 (HCC-2998 colon): > 100 µM
- TGI (HCC-2998 colon): > 100 µM
- GI50 (SK-MEL-5 melanoma): > 100 µM
- TGI (SK-MEL-5 melanoma): > 100 µM
- GI50 (SF-268 CNS): > 100 µM
- TGI (SF-268 CNS): > 100 µM
- GI50 (RPMI-8226 leukemia): > 100 µM
- TGI (RPMI-8226 leukemia): > 100 µM
- GI50 (HS 578T breast): > 100 µM
- TGI (HS 578T breast): > 100 µM
- GI50 (HOP-62 NSCLC): > 100 µM
- TGI (HOP-62 NSCLC): > 100 µM
- GI50 (CAKI-1 renal): > 100 µM
- TGI (CAKI-1 renal): > 100 µM

Compound: CCOC(=O)Cn1c(-c2nonc2NC(=O)c2ccccc2F)nc2ccccc21
- GI50 (U251 CNS): 0.41 µM
- TGI (U251 CNS): 25.8 µM
- GI50 (HT29 colon): 0.721 µM
- TGI (HT29 colon): > 100 µM
- GI50 (MDA-MB-231 breast): 28.7 µM
- TGI (MDA-MB-231 breast): > 100 µM
- GI50 (HCC-2998 colon): 31.7 µM
- TGI (HCC-2998 colon): > 100 µM
- GI50 (SK-MEL-5 melanoma): 0.539 µM
- TGI (SK-MEL-5 melanoma): > 100 µM
- GI50 (SF-268 CNS): 1.89 µM
- TGI (SF-268 CNS): > 100 µM
- GI50 (RPMI-8226 leukemia): 7.5 µM
- TGI (RPMI-8226 leukemia): > 100 µM
- GI50 (HS 578T breast): 32.4 µM
- TGI (HS 578T breast): > 100 µM
- GI50 (HOP-62 NSCLC): 10.8 µM
- TGI (HOP-62 NSCLC): 47.7 µM
- GI50 (CAKI-1 renal): 2.33 µM
- TGI (CAKI-1 renal): > 100 µM

Compound: COc1cc(OC)c(F)c(COc2cnc(Nc3cnn(CCO)c3)nc2)c1F
- GI50 (U251 CNS): 0.528 µM
- TGI (U251 CNS): > 30.8 µM
- GI50 (HT29 colon): 0.36 µM
- TGI (HT29 colon): 4.31 µM
- GI50 (MDA-MB-231 breast): 1.38 µM
- TGI (MDA-MB-231 breast): 7.64 µM
- GI50 (HCC-2998 colon): 2.51 µM
- TGI (HCC-2998 colon): > 100 µM
- GI50 (SK-MEL-5 melanoma): 0.501 µM
- TGI (SK-MEL-5 melanoma): 2.71 µM
- GI50 (SF-268 CNS): 1.03 µM
- TGI (SF-268 CNS): > 64.9 µM
- GI50 (RPMI-8226 leukemia): 1.03 µM
- TGI (RPMI-8226 leukemia): > 100 µM
- GI50 (HS 578T breast): 0.35 µM
- TGI (HS 578T breast): 3.43 µM
- GI50 (HOP-62 NSCLC): 0.423 µM
- TGI (HOP-62 NSCLC): 4.58 µM
- GI50 (CAKI-1 renal): 0.394 µM
- TGI (CAKI-1 renal): 2.87 µM

Compound: O=C1/C(=C/c2ccc(Cl)cc2)CCC1CN1CCOCC1 (configuration not stated)
- TGI (U251 CNS): 40.2 µM
- TGI (HT29 colon): 23 µM
- TGI (MDA-MB-231 breast): 11.2 µM
- TGI (HCC-2998 colon): 23 µM
- TGI (SK-MEL-5 melanoma): 26.1 µM
- TGI (SF-268 CNS): 45.9 µM
- TGI (RPMI-8226 leukemia): > 28.3 µM
- TGI (HS 578T breast): > 100 µM
- TGI (HOP-62 NSCLC): 35.1 µM
- TGI (CAKI-1 renal): 9.46 µM

Compound: COC1C(CO)OC(n2c3c(Cl)cccc3c3c4c(c5c6cccc(Cl)c6[nH]c5c32)C(=O)NC4=O)C(O)C1O (configuration not stated)
- TGI (U251 CNS): 5.12 µM
- TGI (HT29 colon): > 47.3 µM
- TGI (MDA-MB-231 breast): > 54.7 µM
- TGI (HCC-2998 colon): > 20 µM
- TGI (SK-MEL-5 melanoma): 0.321 µM
- TGI (SF-268 CNS): > 51.7 µM
- TGI (RPMI-8226 leukemia): > 18.7 µM
- TGI (HS 578T breast): > 100 µM
- TGI (HOP-62 NSCLC): 6.63 µM
- TGI (CAKI-1 renal): 0.565 µM
